One may read the IC50 as the midpoint of a concentration-inhibition curve. Read a high IC50 as a need for much substance.

This test relates to Plasma. Description: Inhibition of ADP-induced platelet aggregation in human platelet rich plasma.
Turning to `CN(CCCCOCC(=O)O)c1cc(-c2ccccc2)c(-c2ccccc2)cn1`, the IC50 turned out to be 1100 nM. Take `CN(CCCCOCC(=O)O)c1cc(-c2ccccc2)c(-c2ccccc2)nn1`: half-maximal inhibition (IC50) was put at 8600 nM.

`CN(CCCCOCC(=O)O)c1nnc(-c2ccccc2)c(-c2ccccc2)n1`: half-maximal inhibition (IC50) required 1300 nM. Compared with the last compound, the IC50 is about 6.6-fold lower. Regarding `CN(CCCCOCC(=O)O)c1cnc(-c2ccccc2)c(-c2ccccc2)c1`, the IC50 came to 800 nM. `CN(CCCCOCC(=O)O)c1ncc(-c2ccccc2)c(-c2ccccc2)n1` displayed an IC50 of 800 nM. Take `CN(CCCCOCC(=O)O)c1ccc(-c2ccccc2)c(-c2ccccc2)n1`: the IC50 came out at 200 nM.

(Values after ChEMBL document CHEMBL1137604, “Structure-activity relationship study on the 6-membered heteroaromatic ring system of diphenylpyrazine-type prostacyclin receptor agonists” (Bioorg Med Chem Lett, 2007).)
